Test results: article PMC10786919, “Design-rules for stapled peptides with in vivo activity and their application to Mdm2/X antagonists” (Nature Communications, 2024)
Converted amounts (≈) assume the structure as drawn. Read-outs that look alike come from different tables or passages of the source. Positions of bridges follow the written chain, without caps; N, C: chain ends. Non-standard residues stand in square brackets, D forms with d. Residues, ends and D or L forms follow the SMILES beside them. Lys(N3) = [N-]=[N+]=NCCCC[C@H](N)C(=O)O; R8 = C=CCCCCCC[C@@](C)(N)C(=O)O; Cba = N[C@@H](CC1CCC1)C(=O)O; S5 = C=CCCC[C@](C)(N)C(=O)O; βAla = NCCC(=O)O

Tests used:
HCT116 cells = assay: Lactate dehydrogenase (LDH) release assay; format: cell-based
Summary of the method: (§1)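 Geometric means of at least three independent biological runs are given for LDH release measured in HCT116 cells stably expressing a p53-driven β-lactamase reporter. Plating density was 8000 cells/well; DMSO in wells was 0.5%.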

[1] = Lactate dehydrogenase (LDH) release assay; format: cell-based
Summary of the method: as §1

in vitro = assay: in vitro
Summary of the method: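 Azido-peptide permeability was read as loss of NanoBRET signal (donor 450 nm, acceptor 610 nm) after adding NanoBret618-azide at 10 μM final.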

[2] = Solubility assay (kinetic solubility, PBS pH 7); format: physicochemical; details: pH 7, PBS; for solubility kinetic: pH 7, aqueous buffer, kinetic from dmso stock, read-out: Solubility
Summary of the method: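 Quantitation uses an external standard at 100 µM, prepared from 10 mM stock in acetonitrile:methanol:DMSO (10:80:10). Solubility (µM) = (peak area of sample ÷ peak area of standard) × standard concentration.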

[3] = Experimental LogD (partition coefficient); details: not stated, Partition Coeff LogD
[4] = Nanoclick permeability assay EC50
[5] = 0% FBS 4Hr, read-out: LDH: Cytotoxicity assay: EC50

Compound	LDH: Cytotoxicity assay: % Effect (HCT116 cells)	EC50 ([1]; LDH: Cytotoxicity assay: EC50)	cell entry EC50 (in vitro; [4])	solubility kinetic [2]	logD [3]	EPSA (physchem)	Solubility [2]	LDH: Cytotoxicity assay: % Effect (HCT116 cells; 0% FBS 4Hr)	LDH: Cytotoxicity assay: % Effect (HCT116 cells; 0% FBS 16Hr)	EC50 [1, 5]	EC50 ([1]; 0% FBS 16Hr, read-out: LDH: Cytotoxicity assay: EC50)	cell entry EC50 (in vitro)	LDH: Cytotoxicity assay: % Effect (HCT116 cells; 10% FBS 4Hr)	EC50 ([1]; 10% FBS 4Hr, read-out: LDH: Cytotoxicity assay: EC50)
CC(=O)N[C@@H](CCCCN=[N+]=[N-])C(=O)NCCC(=O)N[C@@H](CC(C)C)C(=O)N[C@H](C(=O)N[C@@H](Cc1ccccc1)C(=O)N[C@]1(C)CCCCCCC=CCCC[C@@](C)(C(=O)N[C@@H](CO)C(=O)N[C@@H](C)C(=O)N[C@@H](C)C(N)=O)NC(=O)[C@H](CC2CCC2)NC(=O)[C@H](CCC(N)=O)NC(=O)[C@H](C)NC(=O)[C@H](Cc2c[nH]c3ccccc23)NC(=O)[C@H](Cc2ccccc2)NC(=O)[C@H](CCC(=O)O)NC1=O)[C@@H](C)O [MP-028] (Ac-[Lys(N3)][βAla]LTF[R8]EFWAQ[Cba][S5]SAA-NH2; staple 6-13)	33.41%	8.43 µM	0.0464 µM	6 µM (≈ 11.7 µg/mL)	3.2	197 A^2	–	–	–	–	–	–	–	–
CC(C)C[C@@H]1NC(=O)[C@H](C)NC(=O)[C@H](Cc2c[nH]c3ccccc23)NC(=O)[C@H](Cc2ccc(O)cc2)NC(=O)[C@H](CCC(=O)O)NC(=O)[C@](C)(NC(=O)[C@H](Cc2ccccc2)NC(=O)[C@H](CO)NC(=O)[C@@H](NC(=O)[C@H](CO)NC(=O)[C@@H](N)CCCCN=[N+]=[N-])[C@@H](C)O)CCCCCCC=CCCC[C@@](C)(C(N)=O)NC(=O)[C@H](CC(C)C)NC1=O [MP-0178]	0.79%	> 50.6 µM	1.31 µM	–	2.59	235 A^2	Poorly Behaved	–	–	–	–	–	–	–
CC(=O)N[C@@H](CCCCN=[N+]=[N-])C(=O)NCCC(=O)N[C@@H](CC(C)C)C(=O)N[C@H](C(=O)N[C@@H](Cc1ccccc1)C(=O)N[C@]1(C)CCCCCCC=CCCC[C@@](C)(C(=O)N[C@@H](CO)C(=O)N[C@@H](C)C(=O)N[C@@H](C)C(N)=O)NC(=O)[C@H](C)NC(=O)[C@H](CCC(N)=O)NC(=O)[C@H](C)NC(=O)[C@H](Cc2c[nH]c3ccccc23)NC(=O)[C@H](Cc2ccc(O)cc2)NC(=O)[C@H](CCC(=O)O)NC1=O)[C@@H](C)O [MP-894, AZIDE-ATSP-7041 (CBA10 TO A)] (Ac-[Lys(N3)][βAla]LTF[R8]EYWAQA[S5]SAA-NH2; staple 6-13)	–	–	–	93 µM (≈ 178 µg/mL)	2.59	198 A^2	–	3.381%	18.53%	> 50 µM	> 50 µM	1.33 µM	–	–
CC(=O)N[C@@H](CCCCN=[N+]=[N-])C(=O)NCCC(=O)N[C@@H](CC(C)C)C(=O)N[C@H](C(=O)N[C@@H](Cc1ccccc1)C(=O)N[C@]1(C)CCCCCCC=CCCC[C@@](C)(C(=O)N[C@@H](CO)C(=O)N[C@@H](C)C(=O)N[C@@H](C)C(N)=O)NC(=O)[C@H](CC2CCC2)NC(=O)[C@H](CCC(N)=O)NC(=O)[C@H](C)NC(=O)[C@H](Cc2c[nH]c3ccccc23)NC(=O)[C@H](Cc2ccc(O)cc2)NC(=O)[C@H](CCC(=O)O)NC1=O)C(C)C [MP-258] (Ac-[Lys(N3)][βAla]LVF[R8]EYWAQ[Cba][S5]SAA-NH2; staple 6-13)	-5.925%	> 50.6 µM	0.146 µM	79 µM (≈ 155 µg/mL)	2.93	213 A^2	–	–	–	–	–	–	–	–
CC(C)C[C@@H]1NC(=O)[C@H](C)NC(=O)[C@H](Cc2c[nH]c3ccccc23)NC(=O)[C@H](Cc2ccc(O)cc2)NC(=O)[C@H](CCC(=O)O)NC(=O)[C@](C)(NC(=O)[C@H](Cc2ccccc2)NC(=O)[C@H](CO)NC(=O)[C@@H](NC(=O)CCNC(=O)[C@@H](N)CCCCN=[N+]=[N-])[C@@H](C)O)CCCCCCC=CCCC[C@@](C)(C(N)=O)NC(=O)[C@H](CC(C)C)NC1=O [MP-0177]	-0.29%	> 50.6 µM	0.13 µM	–	2.7	218 A^2	Poorly Behaved	–	–	–	–	–	–	–
CC(=O)N[C@@H](CCCCN=[N+]=[N-])C(=O)NCCC(=O)N[C@@H](CC(C)C)C(=O)N[C@H](C(=O)N[C@@H](Cc1ccccc1)C(=O)N[C@]1(C)CCCCCCC=CCCC[C@@](C)(C(=O)N[C@@H](CO)C(=O)N(C)[C@@H](C)C(=O)N[C@@H](C)C(N)=O)NC(=O)[C@H](CC2CCC2)NC(=O)[C@H](CCC(N)=O)NC(=O)[C@H](C)NC(=O)[C@H](Cc2c[nH]c3ccccc23)NC(=O)[C@H](Cc2ccc(O)cc2)NC(=O)[C@H](CCC(=O)O)NC1=O)[C@@H](C)O [MP-3353]	1.89%	> 50.6 µM	0.232 µM	33 µM (≈ 65.5 µg/mL)	2.67	202 A^2	–	–	–	–	–	–	–	–
CC(=O)N[C@@H](CCCCN=[N+]=[N-])C(=O)NCCC(=O)N[C@@H](CC(C)C)C(=O)N[C@H](C(=O)N[C@@H](Cc1ccccc1)C(=O)N[C@]1(C)CCCCCCC=CCCC[C@@](C)(C(N)=O)NC(=O)[C@H](CC2CCC2)NC(=O)[C@H](CCC(N)=O)NC(=O)[C@H](C)NC(=O)[C@H](Cc2c[nH]c3ccccc23)NC(=O)[C@H](Cc2ccc(O)cc2)NC(=O)[C@H](CCC(=O)O)NC1=O)[C@@H](C)O [MP-326] (Ac-[Lys(N3)][βAla]LTF[R8]EYWAQ[Cba][S5]-NH2; staple 6-13)	7.44%	24.8 µM	0.215 µM	3 µM (≈ 5.22 µg/mL)	2.88	222 A^2	–	–	–	–	–	–	–	–
CC(=O)N[C@@H](CCCCN=[N+]=[N-])C(=O)NCCC(=O)N[C@@H](C)C(=O)N[C@H](C(=O)N[C@@H](Cc1ccccc1)C(=O)N[C@]1(C)CCCCCCC=CCCC[C@@](C)(C(=O)N[C@@H](CO)C(=O)N[C@@H](C)C(=O)N[C@@H](C)C(N)=O)NC(=O)[C@H](CC2CCC2)NC(=O)[C@H](C)NC(=O)[C@H](C)NC(=O)[C@H](Cc2c[nH]c3ccccc23)NC(=O)[C@H](Cc2ccc(O)cc2)NC(=O)[C@H](C)NC1=O)[C@@H](C)O [MP-209, AZIDE-ATSP-7041 (L1A, E5A, Q9A)] (Ac-[Lys(N3)][βAla]ATF[R8]AYWAA[Cba][S5]SAA-NH2; staple 6-13)	–	–	–	2 µM (≈ 3.63 µg/mL)	3.32	197 A^2	–	-1.35%	–	> 50.6 µM	–	0.906 µM	7.572%	> 50 µM
CC(C)C[C@H](NC(=O)CCNC(=O)[C@@H](N)CCCCN=[N+]=[N-])C(=O)N[C@H](C(=O)N[C@@H](Cc1ccccc1)C(=O)N[C@]1(C)CCCCCCC=CCCC[C@@](C)(C(N)=O)NC(=O)[C@H](CC(C)C)NC(=O)[C@H](CC(C)C)NC(=O)[C@H](C)NC(=O)[C@H](Cc2c[nH]c3ccccc23)NC(=O)[C@H](Cc2ccc(O)cc2)NC(=O)[C@H](CCC(=O)O)NC1=O)[C@@H](C)O [MP-0176] (H-[Lys(N3)][βAla]LTF[R8]EYWALL[S5]-NH2; staple 6-13)	6.97%	> 50.6 µM	0.217 µM	–	2.85	212 A^2	Poorly Behaved	–	–	–	–	–	–	–
CC(=O)N[C@@H](CCCCN=[N+]=[N-])C(=O)NCCC(=O)N[C@@H](CC(C)C)C(=O)N[C@H](C(=O)N[C@@H](CC1CCC1)C(=O)N[C@]1(C)CCCCCCC=CCCC[C@@](C)(C(=O)N[C@@H](CO)C(=O)N[C@@H](C)C(=O)N[C@@H](C)C(N)=O)NC(=O)[C@H](Cc2c[nH]c3ccccc23)NC(=O)[C@H](CCC(N)=O)NC(=O)[C@H](C)NC(=O)[C@H](Cc2ccccc2)NC(=O)[C@H](Cc2ccc(O)cc2)NC(=O)[C@H](CCC(=O)O)NC1=O)[C@@H](C)O [MP-791] (Ac-[Lys(N3)][βAla]LT[Cba][R8]EYFAQW[S5]SAA-NH2; staple 6-13)	45.16%	34.6 µM	> 10 µM	28 µM (≈ 55.2 µg/mL)	1.34	197 A^2	–	–	–	–	–	–	–	–
